Key:
Test in all cases: greenhouse post-emergence herbicidal test
ABUTH = assay type: in vivo, Abutilon theophrast; set-up: key to herbicidal activity against ABUTH found: rating on a scale from 0 to 100; conditions: post emergence; application rate a.i.: I.1 31.25 g/ha, B.139 (pyroxasulfone) 25 g/ha, alone or as mixture (composition 1.139)
Outline: (§1)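 Combination activity judged against additive expectation by Colby, E=X+Y−(X·Y/100), from 0–100 damage ratings taken 20 days post-spray. Plants at 1–15 cm in loamy sand (69.9% sand) were sprayed with components formulated as 10% w/w emulsion concentrate in water.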

POLPE = assay type: in vivo, Persicaria maculosa; set-up: key: scale 0 to 100; conditions: application rate a.i.: I.1 31.25 g/ha, B.139 (pyroxasulfone) 12.5 g/ha, alone or as mixture (composition 1.139)
Description: (§2) The culture containers used were plastic pots containing medium loamy sand with approximately 4.6% of humus and 69.9% sand as substrate. The seeds of the test plants were sown separately for each species.
(§3) For the post-emergence treatment, the test plants were grown to a plant height of from 1 to 15 cm, depending on the plant habit, and only then treated with the active compounds which had been suspended or emulsified in water. To this end, the test plants were either sown directly, and grown in the same containers, or they were first grown separately as seedlings and transplanted into the test containers a few days prior to treatment.
(§4) Depending on the species, the plants were kept at 10-25° C. and 20-35° C., respectively.
(§5) The test period extended over 1 to 3 weeks. During this time, the plants were tended and their response to the individual treatments was evaluated 20 days after treatment except mentioned otherwise.
(§6) Evaluation was carried out using a scale from 0 to 100. 100 means no emergence of the plants, or complete destruction of at least the above-ground parts, and 0 means no damage or normal course of growth.
(§7) The respective stated components A and B, and, if appropriate, C, were formulated as a 10% by weight strength emulsion concentrate and, with addition of the amount of solvent system, introduced into the spray liquor used for applying the active compound. In the examples, the solvent used was water.
(§8) In the examples below, using the method of S. R. Colby (1967) “Calculating synergistic and antagonistic responses of herbicide combinations”, Weeds 15, p. 22 ff., the value E, which is expected if the activity of the individual active compounds is only additive, was calculated. E=X+Y−(X·Y/100)

CONAR = assay type: in vivo, Convolvulus arvensis; set-up: key: rating on a scale from 0 to 100; conditions: application rate a.i.: I.1 31.25 g/ha, alone or as mixture (composition 1.139)
Outline: as §1

AMBEL = assay type: in vivo, Ambrosia artemisiifolia; set-up: key: rating on a scale from 0 to 100
Outline: as §1

GERPU = assay type: in vivo, Geranium pusillum; conditions: application rate a.i.: I.1 31.25 g/ha, alone or as mixture (composition 1.139)
Description: as §2, §3, §4, §5, §6, §7, §8

POLCO = assay type: in vivo, Polygonum convolvulus; set-up: key to herbicidal activity against POLCO found: rating on a scale from 0 to 100; conditions: post emergence; application rate a.i.: I.1 31.25 g/ha, B.139 (pyroxasulfone) 12.5 g/ha, alone or as mixture (composition 1.139)
Outline: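 Post-emergence greenhouse test: plants in loamy sand, sprayed at 1–15 cm height with aqueous spray liquor from 10% emulsion concentrates, kept at 10-25 °C or 20-35 °C by species. Damage scored 0–100 (100 = complete destruction), usually 20 days after treatment. Expected additive effect E from Colby: E=X+Y−(X·Y/100).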

SEBEX = assay type: in vivo, Sesbania exaltata; conditions: application rate a.i.: I.1 31.25 g/ha, B.139 (pyroxasulfone) 25 g/ha, alone or as mixture (composition 1.139)
Description: as §2, §3, §4, §5, §6, §7, §8

LAMAM = assay type: in vivo, Lamium amplexicaule; set-up: key: scale 0 to 100; conditions: application rate a.i.: I.1 31.25 g/ha, B.139 (pyroxasulfone) 25 g/ha, alone or as mixture (composition 1.139)
Description: as §2, §3, §4, §5, §6, §7, §8

MATCH = assay type: in vivo, Matricaria recutita; conditions: post emergence; a.i. g/ha: I.1 20.8, B.192 62.5; 20 days after treatment
Outline: as §1

AMARE = assay type: in vivo, Amaranthus retroflexus; conditions: a.i. g/ha: I.1 20.8, B.192 62.5, 20 days after treatment
Description: as §2, §3, §4, §5, §6, §7, §8

CHEAL = assay type: in vivo, Chenopodium album; conditions: a.i. g/ha: I.1 20.8, B.192 62.5, 20 days after treatment
Description: as §2, §3, §4, §5, §6, §7, §8

SETVI = assay type: in vivo, Setaria viridis; conditions: a.i. g/ha: I.1 20.8, B.192 62.5, 20 days after treatment
Description: as §2, §3, §4, §5
Evaluation was carried out using a scale from 0 to 100. […]
In the examples below, using the method of S. R. Colby (1967) “Calculating synergistic and antagonistic responses of herbicide combinations”, Weeds 15, p. 22 ff., the value E, which is expected if the activity of the individual active compounds is only additive, was calculated. […]

[1] = B.139 (pyroxasulfone) 12.5 g/ha

## Cn1nc(C(F)(F)F)c(CS(=O)(=O)C2=NOC(C)(C)C2)c1OC(F)F [B.139, pyroxasulfone]
ABUTH
  herbicidal activity against ABUTH found: 60
POLPE
  herbicidal activity against POLPE found: 55
CONAR; [1]
  herbicidal activity against CONAR found: 60
CONAR; B.139 (pyroxasulfone) 25 g/ha
  herbicidal activity against CONAR found: 60
AMBEL; application rate a.i.: I.1 31.25 g/ha, B.139 (pyroxasulfone) 12.5 g/ha, alone or as mixture (composition 1.139)
  herbicidal activity against AMBEL found: 10
GERPU; [1]
  herbicidal activity against GERPU, found: 0
GERPU; B.139 (pyroxasulfone) 25 g/ha
  herbicidal activity against GERPU, found: 25
POLCO
  herbicidal activity against POLCO found: 15
SEBEX
  herbicidal activity against SEBEX, found: 35
LAMAM
  herbicidal activity against LAMAM, found: 45

## COC(=O)Nc1cccc(OC(=O)Nc2cccc(C)c2)c1 [B.192, phenmedipham]
MATCH
  herbicidal activity against MATCH found: 50%
AMARE
  herbicidal activity against AMARE found: 35%
AMBEL; a.i. g/ha: I.1 20.8, B.192 62.5, 20 days after treatment
  herbicidal activity against AMBEL found: 90%
CHEAL
  herbicidal activity against CHEAL found: 50%
SETVI
  herbicidal activity against SETVI found: 65%

Reference: patent US10881110B2, “Herbicidal compositions comprising isoxazolo[5,4-b]pyridines” (BASF SE, priority 2014, dated 2021)
